Counter-ions that a name gives are not always drawn.
Target: α1 adrenoceptor
Assay: displacement of ^3 H-prazosin specifically bound in rat brain homogenate (radioligand binding)
Conditions: ^3 H Prazosin binding, Ki calculated from IC50, read-out: K1 (nM) ^3 H Prazosin
Description: The compounds of the invention were tested […] for their ability to compete with labelled ligands of α1, α2 -adrenergic,and dopaminergic receptors. Said tests were made essentially following:
(b) the method described by P. Greengrass et al., European Journal of Pharmacology, Vol. 55, pp. 323-326, (1979), which uses the specific displacement of ^3 H-prazosin specifically bound in rat brain homogenate, for the identification of substances interacting with the so called "α1 "adrenoceptor;
The above mentioned methods are radioligand binding assays and are based on the knowledge that many natural or synthetic physiologically active substances such as neurotransmitters, hormones, and others, specifically link to cellular receptors, generally of proteic nature. They are generally obtained from a tissue or organ of a suitable test-animal after isolation and homogenization of said tissue or organ.
The homogenate is twice centrifugated to separate and partially purify the receptorial fraction (synaptosomes).
The labelled substances employed are known to specifically bind their receptors, so the drug-receptor dissociation constants obtained for each test compound under standard conditions are a measure of their actual binding affinities. The validation of the above methods in predicting a possible pharmacological activity was carried out comparing the in vitro binding constants of a number of […] agonist or antagonist of the adrenergic or dopaminergic system with their in vivo activities. The α1 -adrenergic activity is essentially correlated with a peripheral vasodilatation. The α2 -adrenergic activity is essentially correlated with a hypotensive action of central origin, and the dopaminergic activity is correlated with a neuroleptic action. IC50 values, defined as the drug concentration that cause 50% inhibition of the specific ^3 H ligant binding, are observed by incubating from 5 to 7 different dilutions of the tested compound in duplicate or triplicate. Ki, inhibition constant, values are calculated from the following formula: [formula] wherein IC50 is defined as above, C is the concentration of the ^3 H ligand, and KD is the dissociation constant of the ^3 H ligand-receptor complex.

Ki | SMILES
15.2 nM | CCCCCCn1nc(-c2ccc(F)cc2)c2c1CCN(C)C2 [Example 151, 3-(4-fluorophenyl)-4,5,6,7-tetrahydro-1-n.hexyl-5-methyl-1H-pyrazolo/4,3-c/pyridine, methanesulfonate]
40.3 nM | CN1CCc2c(c(-c3ccc(F)cc3)nn2CCc2ccccc2)C1 [Example 138, 3-(4-fluorophenyl)-1-(2-phenylethyl)-5-methyl-4,5,6,7-tetrahydro-1H-pyrazolo/4,3-c/pyridine]
14.5 nM | Clc1ccc(-c2nn(Cc3ccccc3)c3c2CNCC3)cc1 [Example 118, 3-(4-chlorophenyl)-4,5,6,7-tetrahydro-1-phenylmethyl)-1H-pyrazolo/4,3-c/pyridine, hydrochloride]
11.1 nM | Fc1ccc(-c2nn(Cc3ccc(Cl)cc3)c3c2CNCC3)cc1 [Example 103, 1-(4-chlorophenylmethyl)-3-(4-fluorophenyl)-4,5,6,7-tetrahydro-1H-pyrazolo/4,3-c/pyridine, hydrochloride]
7.48 nM | Fc1ccc(-c2nn(Cc3ccc(Cl)c(Cl)c3)c3c2CNCC3)cc1 [Example 108, 1-(3,4-dichlorophenylmethyl)-3-(4-fluorophenyl)-4,5,6,7-tetrahydro-1H-pyrazolo/4,3-c/pyridine, hydrochloride]
13 nM | CCCCCCn1nc(-c2ccc(F)cc2)c2c1CCNC2 [Example 123, 3-(4-fluorophenyl)-4,5,6,7-tetrahydro-1-n.hexyl-1H-pyrazolo/4,3-c/pyridine, methanesulfonate]
12.4 nM | COc1ccc(Cn2nc(-c3ccc(F)cc3)c3c2CCN(C)C3)cc1 [Example 133, 3-(4-fluorophenyl)-1-(4-methoxyphenylmethyl)-5-methyl-4,5,6,7-tetrahydro-1H-pyrazolo/4,3-c/pyridine, hydrochloride]
38.6 nM | c1ccc(Cn2nc(-c3ccccc3)c3c2CCNC3)cc1 [Example 117, 4,5,6,7-tetrahydro-3-phenyl-1-phenylmethyl-1H-pyrazolo/4,3-c/pyridine, hydrochloride]
6.23 nM | COc1ccc(Cn2nc(-c3ccc(F)cc3)c3c2CCNC3)cc1 [Example 105, 3-(4-fluorophenyl)-1-(4-methoxyphenylmethyl)-4,5,6,7-tetrahydro-1H-pyrazolo/4,3-c/pyridine, hydrochloride]
36.3 nM | CN1CCc2c(c(-c3ccc(F)cc3)nn2Cc2ccccc2Cl)C1 [Example 142, 1-(2-chlorophenylmethyl)-3-(4-fluorophenyl)-5-methyl-4,5,6,7-tetrahydro-1H-pyrazolo/4,3-c/pyridine, methanesulfonate]
21.9 nM | CN1CCc2c(c(-c3ccc(F)cc3)nn2Cc2ccc(Cl)c(Cl)c2)C1 [Example 136, 1-(3,4-dichlorophenylmethyl)-3-(4-fluorophenyl)-5-methyl-4,5,6,7-tetrahydro-1H-pyrazolo/4,3-c/pyridine]
42.4 nM | Fc1ccc(-c2nn(Cc3ccccc3)c3c2CN(C2CCCC2)CC3)cc1 [Example 163, 5-cyclopentyl-3-(4-fluorophenyl)-1-phenylmethyl-4,5,6,7-tetrahydro-1H-pyrazolo/4,3-c/pyridine, hydrochloride]
17.3 nM | Fc1ccc(-c2nn(Cc3ccccc3Cl)c3c2CNCC3)cc1 [Example 114, 1-(2-chlorophenylmethyl)-3-(4-fluorophenyl)-4,5,6,7-tetrahydro-1H-pyrazolo/4,3-c/pyridine, methanesulfonate]
52 nM | Cn1nc(-c2ccccc2)c2c1CCNC2 [Example 96, 1-methyl-3-phenyl-4,5,6,7-tetrahydro-1H-pyrazolo/4,3-c/pyridine, methanesu lfonate]
21.2 nM | CN1CCc2c(c(-c3ccc(F)cc3)nn2Cc2ccccc2)C1 [Example 128, 3-(4-fluorophenyl)-5-methyl-1-phenylmethyl-4,5,6,7-tetrahydro-1H-pyrazolo/4,3-c/pyridine, methanesulfonate]
8.7 nM | CCCCCn1nc(-c2ccc(F)cc2)c2c1CCNC2 [Example 122, 3-(4-fluorophenyl)-4,5,6,7-tetrahydro-1-n.pentyl-1H-pyrazolo/4,3-c/pyridine, methanesulfonate]
20.6 nM | CN1CCc2c(c(-c3ccc(F)cc3)nn2CCCc2ccccc2)C1 [Example 139, 3-(4-fluorophenyl)-1-(3-phenylpropyl)-5-methyl-4,5,6,7-tetrahydro-1H-pyrazolo/4,3-c/pyridine, hydrochloride]
18.3 nM | CCCCCn1nc(-c2ccc(F)cc2)c2c1CCN(C)C2 [Example 150, 3-(4-fluorophenyl))-4,5,6,7-tetrahydro-5-methyl-1-n.pentyl-1H-pyrazolo/4,3-c/pyridine, methanesulfonate]

Ki | SMILES
32.2 nM | CC(C)n1nc(-c2ccc(F)cc2)c2c1CCNC2 [Example 95, 3-(4-fluorophenyl)-1-(2-methylethyl)-4,5,6,7-tetrahydro-1H-pyrazolo/4,3-c/pyridine, methanesulfonate]
20.8 nM | CN1CCc2c(c(-c3ccc(F)cc3)nn2Cc2ccc(Cl)cc2)C1 [Example 132, 1-(4-chlorophenylmethyl)-3-(4-fluorophenyl)-5-methyl-4,5,6,7-tetrahydro-1H-pyrazolo/4,3-c/pyridine, methanesulfonate]
17.3 nM | CCCCn1nc(-c2ccc(F)cc2)c2c1CCNC2 [Example 113, 3-(4-fluorophenyl)-1-n.butyl-4,5,6,7-tetrahydro-1H-pyrazolo/4,3-c/pyridine, methanesulfonate]
97.6 nM | CC(C)N1CCc2c(c(-c3ccc(F)cc3)nn2Cc2ccccc2)C1 [Example 162, 3-(4-fluorophenyl)-5-(2-methylethyl)-1-phenylmethyl-4,5,6,7-tetrahydro-1H-pyrazolo/4,3-c/pyridine]
12.9 nM | Fc1ccc(-c2nn(CCCc3ccccc3)c3c2CNCC3)cc1 [Example 111, 3-(4-fluorophenyl)-1-(3-phenylpropyl)-4,5,6,7-tetrahydro-1H-pyrazolo/4,3-c/pyridine, methanesulfonate]
69.2 nM | Fc1ccc(-c2n[nH]c3c2CNCC3)cc1 [Example 19, 3-(4-fluorophenyl)-4,5,6,7-tetrahydro-1H-pyrazolo/4,3-c/pyridine]
49.4 nM | CN1CCc2c(c(-c3ccccc3)nn2Cc2ccccc2)C1 [Example 145, 4,5,6,7-tetrahydro-5-methyl-3-phenyl-1-phenylmethyl-1H-pyrazolo/4,3-c/pyridine, methanesulfonate]
30.9 nM | CN1CCc2c(c(-c3ccc(Cl)cc3)nn2Cc2ccccc2)C1 [Example 146, 3-(4-chlorophenyl)-4,5,6,7-tetrahydro-5-methyl-1-phenylmethyl-1H-pyrazolo/4,3-c/pyridine, methanesulfonate]
32.8 nM | CCCCn1nc(-c2ccc(F)cc2)c2c1CCN(C)C2 [Example 141, 3-(4-fluorophenyl)-1-n.butyl-5-methyl-4,5,6,7-tetrahydro-1H-pyrazolo/4,3-c/pyridine, methanesulfonate]
73.5 nM | CCCn1nc(-c2ccc(F)cc2)c2c1CCN(C)C2 [Example 140, 3-(4-fluorophenyl)-1-n.propyl-5-methyl-4,5,6,7-tetrahydro-1H-pyrazolo/4,3-c/pyridine, methanesulfonate]
5.86 nM | Cc1ccc(-c2nn(Cc3ccccc3)c3c2CNCC3)cc1 [Example 119, 4,5,6,7-tetrahydro-3-(4-methylphenyl)-1-phenylmethyl-1H-pyrazolo/4,3-c/pyridine, hydrochloride]
40.3 nM | Fc1ccc(-c2nn(CCc3ccccc3)c3c2CNCC3)cc1 [Example 110, 3-(4-fluorophenyl)-1-(2-phenylethyl)-4,5,6,7-tetrahydro-1H-pyrazolo/4,3-c/pyridine, methanesulfonate]
20.1 nM | Cc1ccc(-c2nn(Cc3ccccc3)c3c2CN(C)CC3)cc1 [Example 147, 4,5,6,7-tetrahydro-5-methyl-3-(4-methylphenyl)-1-phenylmethyl-1H-pyrazolo/4,3-c/pyridine, methanesulfonate]
7.24 nM | CC(c1ccccc1)n1nc(-c2ccc(F)cc2)c2c1CCNC2 (centres unmarked) [Example 116, 3-(4-fluorophenyl)-4,5,6,7-tetrahydro-1-(1-phenylethyl)-1H-pyrazolo/4,3-c/pyridine, methanesulfonate]
92.2 nM | Cc1ccc(-c2n[nH]c3c2CNCC3)cc1 [Example 32, 3-(4-methylphenyl)-4,5,6,7-tetrahydro-1H-pyrazolo/4,3-c/pyridine, dihydrochloride]
24.2 nM | CCCn1nc(-c2ccc(F)cc2)c2c1CCNC2 [Example 112, 3-(4-fluorophenyl)-1-n.propyl-4,5,6,7-tetrahydro-1H-pyrazolo/4,3-c/pyridine, methanesulfonate]
8.14 nM | CC(c1ccccc1)n1nc(-c2ccc(F)cc2)c2c1CCN(C)C2 (centres unmarked) [Example 144, 3-(4-fluorophenyl)-4,5,6,7-tetrahydro-5-methyl-1-(1-phenylethyl)-1H-pyrazolo/4,3-c/pyridine, hydrochloride]
